Experimental data reported in BigSolDB 2.1.

For `Br.Cc1ccc(Sc2ccccc2N2CCNCC2)c(C)c1`, the solubility (mole fraction) (in 2-butanone, 283.15 K) was 6.2e-05, the solubility (mole fraction) (in 2-butanone, 288.15 K) was 8.4e-05 and the solubility (mole fraction) (in 2-butanone, 293.15 K) was 0.000136. For the same compound, the solubility (mole fraction) (in 2-butanone, 298.15 K) was 0.000163, the solubility (mole fraction) (in 2-butanone, 303.15 K) was 0.00021 and the solubility (mole fraction) (in 2-butanone, 308.15 K) was 0.000267. For the same compound, the solubility (mole fraction) (in 2-butanone, 313.15 K) was 0.000311, the solubility (mole fraction) (in 2-butanone, 318.15 K) was 0.000338 and the solubility (mole fraction) (in ethanol, 283.15 K) was 0.00123. For the same compound, the solubility (mole fraction) (in ethanol, 288.15 K) was 0.00138, the solubility (mole fraction) (in ethanol, 293.15 K) was 0.0015 and the solubility (mole fraction) (in ethanol, 298.15 K) was 0.00162. It also gave a solubility (mole fraction) (in ethanol, 303.15 K) of 0.00199, a solubility (mole fraction) (in ethanol, 308.15 K) of 0.00269 and a solubility (mole fraction) (in ethanol, 313.15 K) of 0.00297. The solubility (mole fraction) (in ethanol, 318.15 K) was 0.00341, the solubility (mole fraction) (in n-butanol, 283.15 K) was 0.000582 and the solubility (mole fraction) (in n-butanol, 288.15 K) was 0.000751. For the same compound, the solubility (mole fraction) (in n-butanol, 293.15 K) was 0.00086, the solubility (mole fraction) (in n-butanol, 298.15 K) was 0.00121 and the solubility (mole fraction) (in n-butanol, 303.15 K) was 0.0017. For the same compound, the solubility (mole fraction) (in n-butanol, 308.15 K) was 0.00202, the solubility (mole fraction) (in n-butanol, 313.15 K) was 0.0023 and the solubility (mole fraction) (in n-butanol, 318.15 K) was 0.00271. For the same compound, the solubility (mole fraction) (in n-propanol, 283.15 K) was 0.000934, the solubility (mole fraction) (in n-propanol, 288.15 K) was 0.00101 and the solubility (mole fraction) (in n-propanol, 293.15 K) was 0.00115. The solubility (mole fraction) (in n-propanol, 298.15 K) was 0.00132, the solubility (mole fraction) (in n-propanol, 303.15 K) was 0.00178 and the solubility (mole fraction) (in n-propanol, 308.15 K) was 0.00214. It also gave a solubility (mole fraction) (in n-propanol, 313.15 K) of 0.00245 and a solubility (mole fraction) (in n-propanol, 318.15 K) of 0.00295.
